Data: patent publication US8450320B2, “Pyrrolopyrazinone inhibitors of kinases” (AbbVie Inc., priority 2010, dated 2013)

Target: T1, Cdc7 (BEV coexpressed huCDC7/DBF4) (Homo sapiens, UniProt O00311)
T1 construct: made in house; host or cells: BEV (baculovirus expression vector)
Assay: Cdc7 enzyme inhibition assay ([33P]-ATP, biotinylated peptide substrate, FlashPlate)
Type: biochemical
Settings: Ki generated from IC50 assuming ATP-competitive inhibition; 1 μM ATP, apparent ATP Km 0.7 μM
Experimental: This example describes the assays that may be used to identify compounds having kinase activity.
Cdc7 (BEV coexpressed huCDC7/DBF4) is prepared internally. Cdc7 assays are conducted as follows with final concentrations as listed. In 384-well v-bottom polypropylene plates, 6 μL compound (2% DMSO), is mixed with 6 μL of Cdc7 (2 ug/mL), and Jerini peptide substrate A-All (biotin-C6linker-TPSDSLIYDDGLS) (2 μM), followed by immediate initiation with 6 μL […] (1 μM, 20 mCi/μmol) using a reaction buffer comprising 25 mM HEPES, pH 7.5, 1 mM DTT, 10 mM MgCl2, 100 μM Na3VO4, 0.075 mg/ml Triton X-100. Reactions are quenched after 1 hr by the addition of 90 μL stop buffer (50 mM EDTA, 2M NaCl). 85 μL of the stopped reactions are transferred to 384-well streptavidin-coated plates (FlashPlate Plus, Perkin Elmer), incubated 30 minutes at room temperature and washed 3 times with 0.05% Tween-20/PBS using an ELX-405 automated plate washer (BioTek), and counted on a TopCount Scintillation Plate Reader (Packard). IC50 values are determined via non-linear regression fitting of enzyme inhibition data and corresponding Ki values are generated assuming ATP-competitive (equilibrium) inhibition and using the experimentally determined apparent ATP Km of 0.7 μM (as determined using the above assay condition, but varying ATP).
Table 1 depicts enzyme inhibition data (Ki) for exemplary compounds. In Table 1, “A” represents a Ki of less than 10 nM, “B” represents a Ki of between 10 nM and 100 nM, and “C” represents a Ki of greater than 100 nM.

T1 sequence (O00311 whole entry): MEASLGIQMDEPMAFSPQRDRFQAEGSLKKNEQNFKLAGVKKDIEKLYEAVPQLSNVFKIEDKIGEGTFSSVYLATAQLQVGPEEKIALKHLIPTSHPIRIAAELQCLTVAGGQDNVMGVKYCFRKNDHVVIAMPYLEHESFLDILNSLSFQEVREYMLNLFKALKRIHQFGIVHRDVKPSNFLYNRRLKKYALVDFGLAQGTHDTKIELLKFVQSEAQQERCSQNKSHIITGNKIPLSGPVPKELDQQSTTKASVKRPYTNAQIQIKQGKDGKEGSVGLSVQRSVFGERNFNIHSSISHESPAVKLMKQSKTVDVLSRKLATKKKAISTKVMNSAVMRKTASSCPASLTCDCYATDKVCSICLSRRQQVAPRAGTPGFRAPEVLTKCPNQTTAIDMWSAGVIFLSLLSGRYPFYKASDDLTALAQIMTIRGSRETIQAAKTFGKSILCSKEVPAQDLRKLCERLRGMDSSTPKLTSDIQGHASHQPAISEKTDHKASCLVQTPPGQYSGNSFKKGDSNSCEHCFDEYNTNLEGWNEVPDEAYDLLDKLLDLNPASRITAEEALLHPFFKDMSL
T1 sequence (Q9UBU7 whole entry partner): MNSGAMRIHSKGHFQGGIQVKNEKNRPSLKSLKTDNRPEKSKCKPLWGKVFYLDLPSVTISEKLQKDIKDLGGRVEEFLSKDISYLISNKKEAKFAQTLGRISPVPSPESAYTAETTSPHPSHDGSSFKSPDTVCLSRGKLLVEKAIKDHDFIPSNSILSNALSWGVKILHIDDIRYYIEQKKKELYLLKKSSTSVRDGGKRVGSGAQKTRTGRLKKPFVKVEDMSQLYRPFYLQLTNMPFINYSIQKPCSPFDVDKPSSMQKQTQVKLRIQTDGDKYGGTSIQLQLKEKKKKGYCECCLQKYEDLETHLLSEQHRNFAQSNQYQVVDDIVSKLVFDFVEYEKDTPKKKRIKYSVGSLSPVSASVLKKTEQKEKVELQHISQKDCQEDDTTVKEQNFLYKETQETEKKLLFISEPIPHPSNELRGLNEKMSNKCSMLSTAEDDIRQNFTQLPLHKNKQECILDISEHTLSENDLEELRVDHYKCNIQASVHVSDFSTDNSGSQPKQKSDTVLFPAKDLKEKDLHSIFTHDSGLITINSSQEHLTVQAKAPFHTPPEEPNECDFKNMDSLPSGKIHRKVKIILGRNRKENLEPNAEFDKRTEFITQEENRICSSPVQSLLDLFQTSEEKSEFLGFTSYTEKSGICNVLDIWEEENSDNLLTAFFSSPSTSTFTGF

Row | SMILES | Ki [nM]
1 | N#Cc1cc(Cc2c[nH]c(=O)c3cc(-c4ccncc4)cn23)ccc1F [Example 1, 2-fluoro-5-{[1-oxo-7-(pyridin-4-yl)-1,2-dihydropyrrolo[1,2-a]pyrazin-4-yl]methyl}benzonitrile] | < 10
2 | N#Cc1cc(Cc2c[nH]c(=O)c3cc(-c4c[nH]c5ncccc45)cn23)ccc1F [Example 2, 2-fluoro-5-{[1-oxo-7-(1H-pyrrolo[2,3-b]pyridin-3-yl)-1,2-dihydropyrrolo[1,2-a]pyrazin-4-yl]methyl}benzonitrile] | < 10
3 | O=C(O)c1cc(Cc2c[nH]c(=O)c3cc(-c4c[nH]c5ncccc45)cn23)ccc1F [Example 3, 2-fluoro-5-{[1-oxo-7-(1H-pyrrolo[2,3-b]pyridin-3-yl)-1,2-dihydropyrrolo[1,2-a]pyrazin-4-yl]methyl}benzoic acid] | < 10
4 | CCOC(=O)c1cccc(Cc2c[nH]c(=O)c3cc(-c4ccncc4)cn23)c1 [Example 4, ethyl 3-{[1-oxo-7-(pyridin-4-yl)-1,2-dihydropyrrolo[1,2-a]pyrazin-4-yl]methyl}benzoate] | 10 to 100
5 | O=C(O)c1cccc(Cc2c[nH]c(=O)c3cc(-c4c[nH]c5ncccc45)cn23)c1 [Example 5, 3-{[1-oxo-7-(1H-pyrrolo[2,3-b]pyridin-3-yl)-1,2-dihydropyrrolo[1,2-a]pyrazin-4-yl]methyl}benzoic acid] | < 10
6 | CCOC(=O)c1cccc(Cc2c[nH]c(=O)c3cc(-c4c[nH]c5ncccc45)cn23)c1 [Example 6, ethyl 3-{[1-oxo-7-(1H-pyrrolo[2,3-b]pyridin-3-yl)-1,2-dihydropyrrolo[1,2-a]pyrazin-4-yl]methyl}benzoate] | < 10
7 | O=C(O)c1cccc(Cc2c[nH]c(=O)c3cc(-c4ccncc4)cn23)c1 [Example 7, 3-{[1-oxo-7-(pyridin-4-yl)-1,2-dihydropyrrolo[1,2-a]pyrazin-4-yl]methyl}benzoic acid] | 10 to 100
8 | CCOC(=O)c1cccc(Cc2c[nH]c(=O)c3cc(-c4cccnc4)cn23)c1 [Example 8, ethyl 3-{[1-oxo-7-(pyridin-3-yl)-1,2-dihydropyrrolo[1,2-a]pyrazin-4-yl]methyl}benzoate] | > 100
9 | CCOC(=O)c1cccc(Cc2c[nH]c(=O)c3cc(-c4cn[nH]c4)cn23)c1 [Example 9, ethyl 3-{[1-oxo-7-(1H-pyrazol-4-yl)-1,2-dihydropyrrolo[1,2-a]pyrazin-4-yl]methyl}benzoate] | < 10
10 | NC(=O)c1cccc(Cc2c[nH]c(=O)c3cc(-c4c[nH]c5ncccc45)cn23)c1 [Example 10, 3-{[1-oxo-7-(1H-pyrrolo[2,3-b]pyridin-3-yl)-1,2-dihydropyrrolo[1,2-a]pyrazin-4-yl]methyl}benzamide] | < 10
11 | O=C(O)c1cccc(Cc2c[nH]c(=O)c3cc(-c4c[nH]c5nccnc45)cn23)c1 [Example 11, 3-{[1-oxo-7-(5H-pyrrolo[2,3-b]pyrazin-7-yl)-1,2-dihydropyrrolo[1,2-a]pyrazin-4-yl]methyl}benzoic acid] | < 10
12 | CCOC(=O)c1cccc(Cc2c[nH]c(=O)c3cc(-c4c[nH]c5nccnc45)cn23)c1 [Example 12, ethyl 3-{[1-oxo-7-(5H-pyrrolo[2,3-b]pyrazin-7-yl)-1,2-dihydropyrrolo[1,2-a]pyrazin-4-yl]methyl}benzoate] | < 10
13 | NC(=O)c1cccc(Cc2c[nH]c(=O)c3cc(-c4cn[nH]c4)cn23)c1 [Example 13, 3-{[1-oxo-7-(1H-pyrazol-4-yl)-1,2-dihydropyrrolo[1,2-a]pyrazin-4-yl]methyl}benzamide] | < 10
14 | O=c1[nH]cc(Cc2cccc([N+](=O)[O-])c2)n2cc(-c3c[nH]c4ncccc34)cc12 [Example 14, 4-(3-nitrobenzyl)-7-(1H-pyrrolo[2,3-b]pyridin-3-yl)pyrrolo[1,2-a]pyrazin-1(2H)-one] | < 10
15 | O=C(c1ccc([N+](=O)[O-])cc1)c1c[nH]c(=O)c2cc(-c3c[nH]c4ncccc34)cn12 [Example 15, 4-(4-nitrobenzoyl)-7-(1H-pyrrolo[2,3-b]pyridin-3-yl)pyrrolo[1,2-a]pyrazin-1(2H)-one] | < 10
16 | N#Cc1ccc(Cc2c[nH]c(=O)c3cc(-c4c[nH]c5ncccc45)cn23)cc1 [Example 16, 4-{[1-oxo-7-(1H-pyrrolo[2,3-b]pyridin-3-yl)-1,2-dihydropyrrolo[1,2-a]pyrazin-4-yl]methyl}benzonitrile] | < 10

Row | SMILES | Ki [nM]
17 | O=C(Nc1ccc(Cc2c[nH]c(=O)c3cc(-c4c[nH]c5ncccc45)cn23)cc1)c1ccncc1 [Example 17, N-(4-{[1-oxo-7-(1H-pyrrolo[2,3-b]pyridin-3-yl)-1,2-dihydropyrrolo[1,2-a]pyrazin-4-yl]methyl}phenyl)isonicotinamide] | < 10
18 | O=C(Nc1ccc(Cc2c[nH]c(=O)c3cc(-c4c[nH]c5ncccc45)cn23)cc1)C1CCC1 [Example 18, N-(4-{[1-oxo-7-(1H-pyrrolo[2,3-b]pyridin-3-yl)-1,2-dihydropyrrolo[1,2-a]pyrazin-4-yl]methyl}phenyl)cyclobutanecarboxamide] | < 10
19 | CN(c1cccc(Cc2c[nH]c(=O)c3cc(-c4c[nH]c5ncccc45)cn23)c1)C1CCC1 [Example 19, 4-{3-[cyclobutyl(methyl)amino]benzyl}-7-(1H-pyrrolo[2,3-b]pyridin-3-yl)pyrrolo[1,2-a]pyrazin-1(2H)-one] | 10 to 100
20 | O=C(Nc1ccc(Cc2c[nH]c(=O)c3cc(-c4c[nH]c5ncccc45)cn23)cc1)C1CC1 [Example 20, N-(4-{[1-oxo-7-(1H-pyrrolo[2,3-b]pyridin-3-yl)-1,2-dihydropyrrolo[1,2-a]pyrazin-4-yl]methyl}phenyl)cyclopropanecarboxamide] | < 10
21 | CS(=O)(=O)Nc1cccc(Cc2c[nH]c(=O)c3cc(-c4c[nH]c5ncccc45)cn23)c1 [Example 21, N-(3-{[1-oxo-7-(1H-pyrrolo[2,3-b]pyridin-3-yl)-1,2-dihydropyrrolo[1,2-a]pyrazin-4-yl]methyl}phenyl)methanesulfonamide] | < 10
22 | Nc1cccc(Cc2c[nH]c(=O)c3cc(-c4c[nH]c5ncccc45)cn23)c1 [Example 22, 4-(3-aminobenzyl)-7-(1H-pyrrolo[2,3-b]pyridin-3-yl)pyrrolo[1,2-a]pyrazin-1(2H)-one] | < 10
23 | Nc1ccc(Cc2c[nH]c(=O)c3cc(-c4c[nH]c5ncccc45)cn23)cc1 [Example 23, 4-(4-aminobenzyl)-7-(1H-pyrrolo[2,3-b]pyridin-3-yl)pyrrolo[1,2-a]pyrazin-1(2H)-one] | < 10
24 | O=c1[nH]cc(Cc2ccc(NCc3ccccn3)cc2)n2cc(-c3c[nH]c4ncccc34)cc12 [Example 24, 4-{4-[(pyridin-2-ylmethyl)amino]benzyl}-7-(1H-pyrrolo[2,3-b]pyridin-3-yl)pyrrolo[1,2-a]pyrazin-1(2H)-one] | < 10
25 | O=c1[nH]cc(Cc2ccc(CNC3CCC3)cc2)n2cc(-c3c[nH]c4ncccc34)cc12 [Example 25, 4-{4-[(cyclobutylamino)methyl]benzyl}-7-(1H-pyrrolo[2,3-b]pyridin-3-yl)pyrrolo[1,2-a]pyrazin-1(2H)-one] | < 10
26 | O=C(Nc1ccc(Cc2c[nH]c(=O)c3cc(-c4c[nH]c5ncccc45)cn23)cc1)c1ccco1 [Example 26, N-(4-{[1-oxo-7-(1H-pyrrolo[2,3-b]pyridin-3-yl)-1,2-dihydropyrrolo[1,2-a]pyrazin-4-yl]methyl}phenyl)-2-furamide] | < 10
27 | O=c1[nH]cc(Cc2cccc(N(C3CCC3)C3CCC3)c2)n2cc(-c3c[nH]c4ncccc34)cc12 [Example 27, 4-[3-(dicyclobutylamino)benzyl]-7-(1H-pyrrolo[2,3-b]pyridin-3-yl)pyrrolo[1,2-a]pyrazin-1(2H)-one] | 10 to 100
28 | O=C(Nc1ccc(Cc2c[nH]c(=O)c3cc(-c4c[nH]c5ncccc45)cn23)cc1)c1cccnc1 [Example 28, N-(4-{[1-oxo-7-(1H-pyrrolo[2,3-b]pyridin-3-yl)-1,2-dihydropyrrolo[1,2-a]pyrazin-4-yl]methyl}phenyl)nicotinamide] | < 10
29 | O=c1[nH]cc(Cc2ccc(CNS(=O)(=O)C3CC3)cc2)n2cc(-c3c[nH]c4ncccc34)cc12 [Example 29, N-(4-{[1-oxo-7-(1H-pyrrolo[2,3-b]pyridin-3-yl)-1,2-dihydropyrrolo[1,2-a]pyrazin-4-yl]methyl}benzyl)cyclopropanesulfonamide] | < 10
30 | O=c1[nH]cc(Cc2ccc(CN(C3CCC3)C3CCC3)cc2)n2cc(-c3c[nH]c4ncccc34)cc12 [Example 30, 4-{4-[(dicyclobutylamino)methyl]benzyl}-7-(1H-pyrrolo[2,3-b]pyridin-3-yl)pyrrolo[1,2-a]pyrazin-1(2H)-one] | 10 to 100
31 | CS(=O)(=O)NCc1ccc(Cc2c[nH]c(=O)c3cc(-c4c[nH]c5ncccc45)cn23)cc1 [Example 31, N-(4-{[1-oxo-7-(1H-pyrrolo[2,3-b]pyridin-3-yl)-1,2-dihydropyrrolo[1,2-a]pyrazin-4-yl]methyl}benzyl)methanesulfonamide] | < 10
